Source: patent US6949528B1, “Compositions containing lysophosphatidic acids which inhibit apoptosis and uses thereof” (priority 1998, dated 2005)
Where two headings read alike, the source gives them in different places.

Assays:
C3H/10T1/2 cells = assay: Anti-apoptotic activity assay: serum deprivation of C3H/10T1/2 cells; format: cell-based; settings: for activity compared with lysophosphatidic acid: Table 3
From the text: In order to determine the […] of the claimed invention, the following method of analysis was used. The cell assay is described in detail in U.S. Pat. Nos. 5,637,486, 5,620,888, and 5,681,703, and Tomei et al. (1993) Proc Natl. Aci. 90:853-857. Briefly, mouse fibroblast C3H/10T1/2 cells (clone 8) were obtained from ATCC (Rockville, Md.) and were maintained in exponential growth phase in which the cell cycle is randomly distributed and no cells are arrested in G0, and in quiescence. Exponential growth phase was assured by seeding at 2000 cells per 1 ml (5 ml for 60 mm culture plate) five days prior to the beginning of the experiment. Assays were performed on cells only up to passage 15. At T=0, cultures were transferred to serum-free medium, as an appropriate stimulus, and seed extracts were added. Controls included 10^−7 and 5×10^−8 M 12-O-tetradecanoyl phorbol-13-acetate (TPA) to ensure the responsiveness of the cell culture. The samples were added to serum free medium and sterile filtered prior to addition to the cultures. Assays were performed in triplicate or quadruplicate. Analyses of the cell responses were made between 18 and 28 hours of serum deprivation. Two assays were performed on each cell culture plate consisting of differential cell counts.
1. All non-adherent or loosely adherent cells were removed from the culture dish and counted by appropriate techniques, typically counting by electronic particle counting instrument. These are the apoptotic cells, the serum deprived released cells (SDR), released by the action of cultivation in serum-free medium. Approximately 95% of these released cells are apoptotic as shown by both ultrastructure analysis and DNA fragmentation analysis.
2. The remaining adherent cells (ADH) were exposed to a buffered, typically pH 7.3, balanced salt solution such as a Hanks Balanced Salt Solution without calcium and magnesium salts containing 0.05% trypsin and 0.53 mM ethylene diaminetetraacetic acid (EDTA). Each culture was incubated at either room temperature or 37(C on a rocking platform to ensure uniform distribution of the trypsin reagent over the culture surface. After a standardized period of time, typically 10 minutes, the released cells were removed from each culture dish and measured by the same means as described above, typically electronic particle counting. This ADH cell count is comprised of both trypsin resistant and trypsin sensitive cells as described in U.S. Pat. Nos. 5,637,486, 5,620,888, and 5,681,703.
Anti-apoptotic activity is expressed in the following examples as the calculated concentration of material ((g/ml of media) required to save 50% of the cells released on serum free treatment.
The ability of 18:1-LPA an other LPAs to protect serum-starved cells from apoptotic death was measured using the C3H/10T1/2 cell assay, performed as described in Example 2. The effect of various compounds on the ability of lysophosphatidic acid to protect serum-starved cells from apoptotic death was also measured. Log phase cells were seeded in 60 mm Petri dishes at 175-350 cells per cm2 and maintained in Basal Medium Eagle (BME) supplemented with 10% Heat Inactivated Fetal Bovine Serum (HIFBS). On day 3 the cells were given fresh media. Treatment began on day 5 when the media containing serum was removed and replaced with the LPA mixture to be tested. After 24 hours of treatment, day 6, serum deprived released (SDR) cells (the […] cell population) and adherent (ADH) cells were separated and counted using an electronic cell counter (Coulter Corporation, Hialea, Fla.). […]

[1] = system: rat neonatal cardiomyocytes; assay: Cardiomyocyte death induced by serum/glucose deprivation; format: cell-based; settings: for Emax: Rattus norvegicus, Cardiomyocyte, read-out: Maximum effect relative to 18:1 LPA in cardiomyocytes
Protocol: Cardiomyocytes were prepared from hearts of day-old Sprague Dawley rats by trypsinization and mechanical disaggregation (Simpson, (1985)) Circ. Res. 56:884-894. The cells were resuspended in MEM, 1×MEM vitamins (Gibco), 5% fetal bovine serum and 50 U/ml penicillin-G and pre-plated for 30 minutes to reduce contamination of non-myocytes. The non-adherent cardiac myocytes were separated and seeded in 2 ml in 35 mm dishes at a density of 3.5×10^5 viable cells per ml. The cells were allowed to adhere for 16-24 hours in a 37° C./5% CO2 humidified incubator.
For serum deprivation, the medium was replaced with fresh serum-free RPMI, whereas serum/glucose deprivation was performed using glucose-free RPMI. The induction of cell death by adriamycin or C2-ceramide was accomplished by the addition of the agent prepared in serum-free RPMI. As a model of ischemia, cultures in serum and glucose free RPMI were placed in an airtight chamber and the latter was continuously perfused with oxygen-free gas overlay of 95% N2/5% CO2 for 8 hours at 37° C. To model reperfusion of the ischemic cells, 10% fetal bovine serum, 2 g/L of glucose were added and the cultures were returned to a normal oxygen gas overlay (37° C./5% CO2) in a humidified incubator for 16 hours.
T investigate effects of LPA, LPA plus other phospholipids, PEG or their mixtures on cell death, various combinations of these components were added to cells in serum free medium at the beginning of cytotoxic treatment.
Because cardiomyocytes are terminally differentiated non-dividing cells, viability was determined by measurement of the decrease in the relative number of adherent cells. […] Adherent cardiomyocytes were collected from culture dishes using 0.25% Trypsin/0.05% EDTA and counted on Coulter Counter ZM and Coulter Channelyzer 256.

[2] = Electrophoresis radiobinding assay (native polyacrylamide gel); format: binding; settings: FIG. 9 and other experiments
Protocol: Electrophoresis radiobinding assay. Proteins were analyzed on native polyacrylamide gels following incubation with ^3H-labeled 18:1-LPA. ^3H-labeled lysophosphatidic acid (1-oleyl) (DuPont NEN Products, Boston, Mass.) was added to tested proteins at 1 nM labeled 18:1-LPA/45_(g protein. Mixtures were incubated at a bicarbonate buffered saline/EDTA solution at 37° C. for 60 minutes. Incubated samples were mixed with native gel sample buffer (312_mM Tris pH 6.8, 50% glycerol, 0.05% bromophenol blue) and loaded entirely onto an 8% discontinuous native polyacrylamide gel. Following electrophoresis, proteins were fixed into the gels using an aqueous solution consisting of glacial acetic acid, 10% (vol/vol) and methan 130% (vol./vol.) solution. Fixed gels were then incubated for 60 minutes in autoradiography enhancer (EN^3HANCE, DuPont NEN Products, Boston, Mass.), and dried onto 3M chromatography paper (Whatman, Clifton, N.J.) and exposed to autoradiography film (X-Omat, Kodak, Rochester, N.Y.) for 72 hours at −80° C.

[3] = serum-deprived C3H/10T1/2 cells, 24 hours of treatment

Molecule	Concentration for Max Effect (C3H/10T1/2 cells; [3]) [µM]	Concentration ranges for cardiomyocyte protection ([1]; serum/glucose deprivation)	Maximum effect relative to 18:1 LPA (C3H/10T1/2 cells; [3]) [%]	Maximum effect relative to 18:1 LPA in cardiomyocytes ([1]; serum/glucose deprivation) [%]	other results
CCCCCCCCCCCCCCOCC(O)COP(=O)(O)O (racemic) [Compound 4, 3-O-Tetradecyl-rac-glycero-1-phosphate]	–	–	–	–	Maximum effect relative to 18:1 LPA: Toxic (C3H/10T1/2 cells): Toxic; lowest concentration at which cytotoxic effects were observed (column Concentration for Max Effect) (C3H/10T1/2 cells; mouse, 24 h): 10 µM; Toxic concentration range in cardiomyocytes ([1]; serum/glucose deprivation): Toxic (3-30 μM)
CCCCCCCC/C=C\CCCCCCCCOCC(O)COP(=O)(O)O (racemic) [Compound 12, 3-O-Oleyl-rac-glycero-1-phosphate]	10	1 to 10 µM	–	–	Emax (C3H/10T1/2 cells; Mus musculus, serum-deprived C3H/10T1/2 cells, 24 hours of treatment, read-out: Maximum effect relative to 18:1 LPA): 100%; Emax ([1]; serum/glucose deprivation): 100%
CCCCCCCC/C=C\CCCCCCCC(=O)OCC(COP(=O)(OC)OC)OC (racemic) [Compound 45, Dimethyl 3-O-oleoyl-2-O-methyl-rac-glycero-1-phosphate]	–	30 µM	–	–	Emax [1]: 30%
CCCCCCCC/C=C\CCCCCCCC(=O)OCC(COP(O)(O)=S)OC (racemic) [Compound 48, 3-O-Oleoyl-2-O-methyl-rac-glycero-1-thiophosphate]	1	.03 to 10 µM	130	100	activity compared with lysophosphatidic acid (C3H/10T1/2 cells): activity significantly higher than lysophosphaticid acid
CCCCCCCC/C=C\CCCCCCCCOCC(COP(O)(O)=S)OC (racemic) [Compound 66, 3-O-Oleyl-2-O-methyl-rac-glycero-1-thiophosphate]	1	.03 to 1 µM	130	60	activity compared with lysophosphatidic acid (C3H/10T1/2 cells): activity significantly higher than lysophosphaticid acid
CCCCCCCC/C=C\CCCCCCCCOC(=O)C(COP(O)(O)=S)OC (racemic) [Compound 78, Oleyl 1-thiophosphoryl-2-O-methyl-rac-glycerate]	1	.01 to 3 µM	160	130	activity compared with lysophosphatidic acid (C3H/10T1/2 cells): activity significantly higher than lysophosphaticid acid
CCCCCCCC/C=C\CCCCCCCCOCCCOP(=O)(O)O [Compound 16, 3-O-Oleyloxypropyl-1-phosphate]	10	1 to 3 µM	100	100	–
CCCCCCCCCCOCCCOP(=O)(O)O [Compound 19, 3-Decyloxypropyl-1-phosphate]	30	1 to 10 µM	50	100	–
CCCCCCCC/C=C\CCCCCCCC(=O)OCCCOP(=O)(O)O [Compound 30, 1-(3-propyl oleoate)phosphate]	30	1 to 10 µM	100	150	–
CCCCCCCC/C=C\CCCCCCCC(=O)OCCCOP(O)(O)=S [Compound 68, 1-(3-propyloleoate)thiophosphate]	1	.003 to 10 µM	150	100	–
α-fetoprotein: α-fetoprotein from fetal bovine serum (protein, UniProt Q3SZ57 19-610, looked up) Alpha-fetoprotein: RTMHKNAYGIDSILDSSPCSSGTNLVGLATIFFAQSVQGATYEEVSQMVKDVLTIIEKPTGSKQPAGCLENQVSAFLEEICREKEIPEKYGLSDCCSRTGEERHDCFLAHKKAAPASIPPFPVLEPVTSCKSYKENRELFINRYIYEIARRHPVLYAPTILSVANQYNKIIPHCCKAENATECFETKVTSITKELRESSLLNQHICAVMGKFGPRTFRAITVTKVSQKFPKANFTEIQKLVMDVAHIHEECCKGNVLECLQDGERVMSYICSQQDILSRQIAECCKLPTTLELGHCIIHAENDDKPEGLSPNVNRFLGDRDFNQLSSRDKDLSMARFTYEYSRRHTKLAVPIILRVAKGYQELLEKCSQSENPSECQDKGEEELEKYIQESQALAKRSCGLFQKLGEYYLQNAFLVAYTKKAPQLTSPELMALTRKMANAGAICCHLSEDKQLACGEGVADLIIGHLCIRHEENPINPGVDQCCTSSYSNRRPCFSSLVVDETYVPPPFSDDKFIFHKDLCQVQGVPLQTMKQQFLINLVKQKPQITEEQLETVVADFSGLLEKCCQSQEQEVCFTEEGPALISKTRAALGV	–	–	–	–	binding to 18:1-LPA, detectable band [2]: bind to 18:1-LPA
